Each block holds one molecule with its values, some of them ahead of it.
Legend:
[1] = test system: patients with advanced solid tumors; assay: Phase I study: safety, dose-limiting toxicities and treatment-emergent adverse events; format: in vivo, human
Description: Patients with advanced metastatic or progressive solid tumors who were refractory to, or intolerant of, established therapy known to provide clinical benefit for their condition were enrolled. Cohorts of 3-6 patients each received escalating doses of compound of structure (I) using a modified Fibonacci dose escalation approach. Once the optimal dose has been established, additional patients may be enrolled to confirm safety and to explore efficacy. This is an ongoing Phase 1, open-label, dose-escalation, safety, PK and PD study. The proposed starting dose and schedule for oral compound of structure (I) was a 1-mg flat dose once daily (QD) for 14 days followed by a 7-day drug-free recovery period (each cycle=21 days). In the absence of dose-limiting toxicities (DLTs) in the first cohort of at least 3 patients, the dose was increased using a modified Fibonacci dose escalation scheme, and BID dosing commenced according to the dose escalation schedule described in Table 28. The first patient in cohort 6 has been enrolled at 8 mg compound of structure (I) BID. The baseline demographics of the first 14 patients enrolled in the study are described in Table 26. […] DLT was defined as any one of the following events observed in cycle 1, regardless of investigator attribution, unless there was a clear alternative explanation: • 1. Grade 3 or greater febrile neutropenia • 2. Grade 4 neutropenia for ≥7 consecutive days • 3. Grade 4 thrombocytopenia or Grade 3 thrombocytopenia with clinically significant bleeding or that requires a platelet transfusion • 4. Grade 3 or 4 nonhematologic AEs will be considered dose limiting, regardless of duration aside from the specific parameters described herein • 5. Grade 4 nausea, vomiting, or diarrhea, regardless of duration • 6. […] Any Grade ≥3 elevations in creatinine • 10. Any Grade 5 toxicity

[2] = Four-week stability of Form B obtained using various Step 4.1 reaction conditions (40° C./75% RH, HPLC); format: physicochemical; settings: 40° C. ± 2° C., 75 ± 5% RH, sealed vial
Description: The results of the stability study appear in Table 21.

[3] = Phase I study: plasma pharmacokinetics of compound of structure (I) and alvocidib; format: in vivo, human
Description: Patients with advanced metastatic or progressive solid tumors who were refractory to, or intolerant of, established therapy known to provide clinical benefit for their condition were enrolled. Cohorts of 3-6 patients each received escalating doses of compound of structure (I) using a modified Fibonacci dose escalation approach. Once the optimal dose has been established, additional patients may be enrolled to confirm safety and to explore efficacy.
This is an ongoing Phase 1, open-label, dose-escalation, safety, PK and PD study. The proposed starting dose and schedule for oral compound of structure (I) was a 1-mg flat dose once daily (QD) for 14 days followed by a 7-day drug-free recovery period (each cycle=21 days). In the absence of dose-limiting toxicities (DLTs) in the first cohort of at least 3 patients, the dose was increased using a modified Fibonacci dose escalation scheme, and BID dosing commenced according to the dose escalation schedule described in Table 28. The first patient in cohort 6 has been enrolled at 8 mg compound of structure (I) BID. The baseline demographics of the first 14 patients enrolled in the study are described in Table 26.
Plasma PK parameters of compound of structure (I) and alvocidib were evaluated in Cohorts 1-5 at specific timepoints during the study. Blood was collected from patients in Cohorts 1-5 according to the pharmacokinetic sampling schedule described in Table 29.
PK parameters were estimated using standard noncompartmental methods. Actual sample collection times were used rather than scheduled collection times. Plasma concentrations below the limit of quantification were treated as 0. Imbedded missing plasma concentrations (e.g., missing values between two observed values) were estimated using linear […]. This is consistent with using the trapezoidal rule to calculate AUC. Other missing plasma concentrations were excluded from calculations to estimate PK parameters.

[4] = Stability study of amorphous Form A (decomposition to compound A-2); format: physicochemical
[5] = Dynamic vapor sorption (DVS) test of amorphous Form A; format: physicochemical; settings: 80% relative humidity
[6] = patients (% of N = 14), oral dosing, advanced solid tumors

Structure (SMILES): CN1CC[C@H](c2c(OP(=O)(O)O)cc(O)c3c(=O)cc(-c4ccccc4Cl)oc23)[C@H](O)C1 [compound of structure (I), 2-(2-chlorophenyl)-5-hydroxy-8-((3S,4R)-3-hydroxy-1-methylpiperidin-4-yl)-4-oxo-4H-chromen-7-yl dihydrogen phosphate]
toxicity observed to date ([1]; oral, Cohorts to date, patients with advanced solid tumors): no unexplained toxicity, and no evidence of dose-limiting diarrhea or neutropenia
Treatment-emergent adverse events grade ≥ 3: Anemia, Grade 3 [1, 6]: 1 (7%)
Treatment-emergent adverse events grade ≥ 3: Chest Pain, Grade 3 [1, 6]: 1 (7%)
Treatment-emergent adverse events grade ≥ 3: Haematuria, Grade 3 [1, 6]: 1 (7%)
Treatment-emergent adverse events grade ≥ 3: Hypotension, Grade 3 [1, 6]: 1 (7%)
Treatment-emergent adverse events grade ≥ 3: Hypoxia, Grade 3 [1, 6]: 1 (7%)
Treatment-emergent adverse events grade ≥ 3: Malignant Pleural Effusion, Grade 3 [1, 6]: 1 (7%)
Treatment-emergent adverse events grade ≥ 3: Pain, Grade 3 [1, 6]: 1 (7%)
Treatment-emergent adverse events grade ≥ 3: Swelling, Grade 3 [1, 6]: 1 (7%)

A-2 ([2]; 7 days ± 1 day): 6.6%
HPLC Purity of A-5 ([2]; 7 days ± 1 day): 91.3%
A-2 ([2]; 14 days ± 1 day): 13.7%
HPLC Purity of A-5 ([2]; 14 days ± 1 day): 84.12%
A-2 ([2]; 21 days ± 1 day): 19.0%
HPLC Purity of A-5 ([2]; 21 days ± 1 day): 78.5%
A-2 ([2]; 28 days ± 1 day): 22.2%
HPLC Purity of A-5 ([2]; 28 days ± 1 day): 75.0%
A-2 ([2]; Initial): 1.02%
HPLC Purity of A-5 ([2]; Initial): 97.0%
Structure (SMILES): CN1CCC(c2c(OP(=O)(O)O)cc(O)c3c(=O)cc(-c4ccccc4Cl)oc23)C(O)C1.Cl (stereo not shown) [Form A-11]

Tmax ([3]; Cohort 5, 6 mg BID oral Formulation No. 401-01, Cycle 1 Day 1, Mean of subjects 501-503): 60 min
Tmax ([3]; Cohort 5, 6 mg BID oral Formulation No. 401-01, Cycle 1 Day 1, Subject 501): 30 min
Tmax ([3]; Cohort 5, 6 mg BID oral Formulation No. 401-01, Cycle 1 Day 1, Subject 502): 120 min
Tmax ([3]; Cohort 5, 6 mg BID oral Formulation No. 401-01, Cycle 1 Day 1, Subject 503): 30 min
Tmax ([3]; Cohort 5, 6 mg BID oral Formulation No. 401-01, Cycle 1 Day 14, Mean of subjects 501-503): 60 min
Tmax ([3]; Cohort 5, 6 mg BID oral Formulation No. 401-01, Cycle 1 Day 14, Subject 501): 30 min
Tmax ([3]; Cohort 5, 6 mg BID oral Formulation No. 401-01, Cycle 1 Day 14, Subject 502): 120 min
Tmax ([3]; Cohort 5, 6 mg BID oral Formulation No. 401-01, Cycle 1 Day 14, Subject 503): 30 min
Structure (SMILES): CN1CC[C@H](c2c(O)cc(O)c3c(=O)cc(-c4ccccc4Cl)oc23)[C@H](O)C1 [alvocidib, 2-(2-chlorophenyl)-5,7-dihydroxy-8-[(3S,4R)-3-hydroxy-1-methylpiperidin-4-yl]chromen-4-one]

Structure (SMILES): CN1CC[C@H](c2c(OP(=O)(O)O)cc(O)c3c(=O)cc(-c4ccccc4Cl)oc23)[C@H](O)C1 [Form A]
decomposition ([4]; 40° C. and 75% relative humidity for one week): accelerated decomposition
degradation to compound A-2 ([4]; after 10 days at room temperature): 6.85%
degradant trends ([4]; stored at −20° C.): no degradant trends
A-2 ([2]; 7 days ± 1 day): 0.88%
HPLC Purity of A-5 ([2]; 7 days ± 1 day): 98.6%
A-2 ([2]; 14 days ± 1 day): 2.2%
HPLC Purity of A-5 ([2]; 14 days ± 1 day): 97.5%
A-2 ([2]; Initial): 0.44%
HPLC Purity of A-5 ([2]; Initial): 99.2%
weight of water taken in (DVS), hygroscopicity [5]: 12.5%
